Here are results for four compounds from patent publication US20080015222A1, “New Heterocyclic Amides” (ASTRAZENECA AB, priority 2004, published 2008).

This assay concerns the target T1, hVR1 (Homo sapiens, UniProt Q8NER1).
T1 construct: expressed in transfected cells
Briefly: hVR1 FLIPR (Fluorometric Image Plate Reader) screening assay, IC50 determination. In kind it is cell-based. The note with it: CHO cells stably expressing hVR1. How it is done: 1. hVR1FLIPR (Fluorometric Image Plate Reader) Screening Assay
Transfected CHO cells, stably expessing hVR1 (15,000 cells/well) are seeded in 50 ul media in a black clear bottom 384 plate (Greiner) and grown in a humidified incubator (37° C., 2% CO2), 24-30 hours prior to experiment.
Subsequently, the media is removed from the cell plate by inversion and 2 μM Fluo-4 is added using a multidrop (Labsystems). Following the 40 minutes dye incubation in the dark at 37° C. and 2% CO2, the extracellular dye present is washed away using an EMBLA (Scatron), leaving the cells in 40 ul of assay buffer (1×HBSS, 10 mM D-Glucose, 1 mM CaCl2, 10 mM HEPES, 10×7.5% NaHCO3 and 2.5 mM Probenecid).
FLIPR Assay—IC50 Determination Protocol
For IC50 determinations the fluorescence is read using FLIPR filter 1 (em […]). A cellular baseline recording is taken for 30 seconds, followed by a 20 μl addition of 10, titrated half-log concentrations of the test compound, yielding cellular concentration ranging from 3 μM to 0.1 nM. Data is collected every 2 seconds for a further 5 minutes prior to the addition of a VR1 agonist solution: either 50 nM solution of capsaicin or MES (2-[N-morpholino]ethanesulfonic acid) buffer (pH 5.2), by the FLIPR pipettor. The FLIPR continues to collect data for a further 4 minutes. Compounds having antagonistic properties against the hVR1 will inhibit the increase in intracellular calcium in response to the capsaicin addition. This consequently leading to a reduction in fluorescence signal and providing a reduced fluorescence reading, compared with no compound, buffer controls. Data is exported by the FLIPR program as a sum of fluorescence calculated under the curve upon the addition of capsaicin. Maximum inhibition, Hill slope and IC50 data for each compound are generated.

Where [1] appears, read: agonist low pH (MES buffer pH 5.2).

T1 sequence (Q8NER1 whole entry): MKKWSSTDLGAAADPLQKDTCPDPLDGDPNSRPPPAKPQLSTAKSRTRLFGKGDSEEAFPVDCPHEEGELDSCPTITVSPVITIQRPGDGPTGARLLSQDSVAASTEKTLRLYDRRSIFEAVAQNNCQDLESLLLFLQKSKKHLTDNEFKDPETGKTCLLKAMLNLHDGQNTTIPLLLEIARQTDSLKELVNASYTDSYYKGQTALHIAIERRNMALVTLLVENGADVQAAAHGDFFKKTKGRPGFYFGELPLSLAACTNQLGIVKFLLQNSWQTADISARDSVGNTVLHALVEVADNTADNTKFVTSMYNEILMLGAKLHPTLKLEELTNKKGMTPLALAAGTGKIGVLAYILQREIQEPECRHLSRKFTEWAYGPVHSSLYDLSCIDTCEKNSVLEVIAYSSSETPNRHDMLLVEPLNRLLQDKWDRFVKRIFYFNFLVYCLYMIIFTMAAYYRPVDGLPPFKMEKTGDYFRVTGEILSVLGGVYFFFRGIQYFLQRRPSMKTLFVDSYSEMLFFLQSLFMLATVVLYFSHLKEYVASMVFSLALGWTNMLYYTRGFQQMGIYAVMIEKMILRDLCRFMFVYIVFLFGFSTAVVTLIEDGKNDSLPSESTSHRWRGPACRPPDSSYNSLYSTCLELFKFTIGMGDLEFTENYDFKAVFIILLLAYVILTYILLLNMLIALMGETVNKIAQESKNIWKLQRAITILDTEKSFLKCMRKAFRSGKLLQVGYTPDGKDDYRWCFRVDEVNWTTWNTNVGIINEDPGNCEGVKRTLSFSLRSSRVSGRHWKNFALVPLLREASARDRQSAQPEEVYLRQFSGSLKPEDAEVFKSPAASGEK

As a reminder, the IC50 is the concentration at which inhibition is half-maximal. Read a high IC50 as lower potency. For the compound `COCCOc1cc(NC(=O)Cn2cnc3cccc([N+](=O)[O-])c32)cc(OC)c1` [Example 10, N-[3-Methoxy-5-(2-methoxyethoxy)phenyl]-2-(7-nitro-1H-benzimidazol-1-yl)acetamide], the IC50 worked out at 22 nM (agonist capsaicin (50 nM)) and 45 nM under setting [1].

As for `O=C(Cn1cnc2cccc([N+](=O)[O-])c21)Nc1cc(F)c(F)c(F)c1` [Example 14, 2-(7-Nitro-1H-benzimidazol-1-yl)-N-(3,4,5-trifluorophenyl)acetamide], the IC50 runs as follows: (agonist capsaicin (50 nM)) 48 nM; under setting [1], 108 nM.

Take `COc1cc(NC(=O)Cn2cnc3cccc(C(C)=O)c32)cc(C(F)(F)F)c1` [Example 32, 2-(7-Acetyl-1H-benzimidazol-1-yl)-N-[3-methoxy-5-(trifluoromethyl)phenyl]acetamide]: the IC50 stood at 77 nM (agonist capsaicin (50 nM)) and 53 nM under setting [1].

Consider `COc1cc(NC(=O)Cn2cnc3cccc(C(C)=O)c32)cc(OC)c1` [Example 35, 2-(7-Acetyl-1H-benzimidazol-1-yl)-N-(3,5-dimethoxyphenyl)acetamide], for which the IC50 is, setting by setting: (agonist capsaicin (50 nM)) 518 nM; under setting [1], 508 nM.
